Converted amounts (≈) assume the structure as drawn.

For data set [1], the target named is T1, Indoleamine 2,3-dioxygenase 1 (Homo sapiens, UniProt P14902). Description: Inhibition of IDO1 in IFN gamma-stimulated human HeLa cells measured after 48 hrs by fluorescence based microplate reader assay. In kind it is cell-based.
Target sequence in this assay (P14902 whole entry): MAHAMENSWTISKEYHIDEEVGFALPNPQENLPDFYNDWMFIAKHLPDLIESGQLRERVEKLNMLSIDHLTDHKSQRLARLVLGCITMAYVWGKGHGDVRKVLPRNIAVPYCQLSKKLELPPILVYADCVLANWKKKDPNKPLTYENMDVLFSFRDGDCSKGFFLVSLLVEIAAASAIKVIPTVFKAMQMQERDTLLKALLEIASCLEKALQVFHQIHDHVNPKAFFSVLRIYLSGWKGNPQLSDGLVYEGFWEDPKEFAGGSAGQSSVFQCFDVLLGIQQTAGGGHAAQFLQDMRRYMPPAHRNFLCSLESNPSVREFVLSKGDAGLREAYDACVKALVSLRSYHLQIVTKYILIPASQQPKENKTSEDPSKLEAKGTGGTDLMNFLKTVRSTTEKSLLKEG
Data set [2] can be described thus: Half life in dog at 0.5 mg/kg, po or 0.25 mg/kg, iv by LC-MS/MS analysis. In kind it is ADME, organism-based, Canis lupus familiaris. The conditions noted are these: in vivo.
For a further data set, the target named is Cytochrome P450 2C9 (Homo sapiens, UniProt P11712). The data set is described as follows: Inhibition of CYP2C9 (unknown origin). The class given is ADME.
Data set [3] in a line: Inhibition of Sodium channel (unknown origin) current. Details: species or system Homo sapiens.
The target in data set [4] is T1, Indoleamine 2,3-dioxygenase 1. Description: Displacement of [3H] labeled-N-(4-Fluorophenyl)-3-(4-(4-(2-hydroxypropan-2-yl)-6-(trifluoromethyl)pyridin-3-yl)phenyl)oxetane-3-carboxamide from human IDO1 assessed as dissociation rate constant by radioligand binding assay.
Target sequence in this assay (P14902 whole entry, looked up): as the sequence (P14902 whole entry) above
A short description of data set [5]: Unbound intrinsic clearance in rat hepatocytes. The class given is ADME, cell-based, Hepatocyte.
The nature of data set [6]: Solubility of compound at pH 2. The class given is physicochemical. Particulars: buffer.
Data set [7] has as its target T1, Indoleamine 2,3-dioxygenase 1. The data set is described as follows: Displacement of [3H] labeled-N-(4-Fluorophenyl)-3-(4-(4-(2-hydroxypropan-2-yl)-6-(trifluoromethyl)pyridin-3-yl)phenyl)oxetane-3-carboxamide from human IDO1 assessed as dissociation half life by radioligand binding assay. In general terms: Displacement assays read how much labelled ligand stays bound in the presence of the test substance.
Target sequence in this assay (P14902 whole entry, looked up): as the sequence (P14902 whole entry) above

The target in data set [8] is Indoleamine 2,3-dioxygenase 1 (Mus musculus) (UniProt P28776). The data set is described as follows: In vivo inhibition of human IDO1 knock-in mouse CT26 cells translated in single oral gavage dosed CD1 mouse tumor model assessed as reduction in kynurenine level in tumor measured upto 24 hrs. In kind it is functional, organism-based. Particulars: dose 0.3-30 mg/kg, DDE = dose-dependent effect.

The target is the same in data set [9]. The data set is described as follows: In vivo inhibition of human IDO1 knock-in mouse CT26 cells translated in single oral gavage dosed CD1 mouse tumor model assessed as reduction in kynurenine level in plasma measured upto 24 hrs. The class given is functional, organism-based. The conditions noted are these: dose 0.3-30 mg/kg, DDE = dose-dependent effect.

A short description of data set [10]: Inhibition of potassium channel (unknown origin) current. Details: species or system Homo sapiens.
The nature of data set [11]: Oral bioavailability in dog using spray-dried dispersion at 0.5 mg/kg by LC-MS/MS analysis. The class given is ADME, organism-based, Canis lupus familiaris. The conditions noted are these: in vivo.
A short description of data set [12]: Inhibition of Calcium channel (unknown origin) current. Details: species or system Homo sapiens.
Data set [13] can be described thus: Half life in Wistar Han rat at 1 mg/kg, po or 0.5 mg/kg, iv by LC-MS/MS analysis. Particulars: in vivo. The class given is ADME, organism-based.
Data set [14] deals with T1, Indoleamine 2,3-dioxygenase 1. The data set is described as follows: Inhibition of IDO1 in IFNgamma/LPS stimulated human whole blood assessed as unbound concentration using kynurenine/tryptophan as substrate preincubated with compound for 15 mins followed by incubation with IFNgamma/LPS for 18 hrs by LC/MS/MS analysis. In kind it is tissue-based.
Target sequence in this assay (P14902 whole entry): as above
Data set [15] is described as follows: Unbound intrinsic clearance in human hepatocytes. In kind it is ADME, cell-based, Hepatocyte.
Data set [16] in a line: Solubility of compound at pH 7. Particulars: buffer. The class given is physicochemical.
A short description of data set [17]: Oral bioavailability in Wistar Han rat using spray-dried dispersion at 1 mg/kg by LC-MS/MS analysis. In kind it is ADME, organism-based. Particulars: in vivo.
Data set [18] is described as follows: Oral bioavailability in Wistar Han rat using crystalline form of sample at 1 mg/kg by LC-MS/MS analysis. In kind it is ADME, organism-based. Particulars: in vivo.
Data set [19] is described as follows: Oral bioavailability in dog using crystalline at 0.5 mg/kg by LC-MS/MS analysis. The class given is ADME, organism-based, Canis lupus familiaris. The conditions noted are these: in vivo.
The target in data set [20] is T1, Indoleamine 2,3-dioxygenase 1. Description: Displacement of [3H] labeled-N-(4-Fluorophenyl)-3-(4-(4-(2-hydroxypropan-2-yl)-6-(trifluoromethyl)pyridin-3-yl)phenyl)oxetane-3-carboxamide from human IDO1 assessed as inhibition constant by radioligand binding assay.
Target sequence in this assay (P14902 whole entry): as above
The target of data set [21] is Voltage-gated inwardly rectifying potassium channel KCNH2 (Homo sapiens, UniProt Q12809). Description: Inhibition of MK-499 binding to hERG. In kind it is toxicity.
Data set [22] is described as follows: Volume of distribution at steady state in rat. The conditions noted are these: in vivo. The class given is ADME.
Data set [23] in a line: MRT in rat. The class given is ADME. The conditions noted are these: in vivo.
Data set [24] can be described thus: Half life in rat. The conditions noted are these: in vivo. The class given is ADME.
Data set [25] deals with T1, Indoleamine 2,3-dioxygenase 1. The data set is described as follows: Displacement of [3H] labeled-N-(4-Fluorophenyl)-3-(4-(4-(2-hydroxypropan-2-yl)-6-(trifluoromethyl)pyridin-3-yl)phenyl)oxetane-3-carboxamide from human IDO1 assessed as dissociation constant by radioligand binding assay.
Target sequence in this assay (P14902 whole entry): as above

Chain of Voltage-gated inwardly rectifying potassium channel KCNH2 (Q12809 whole entry): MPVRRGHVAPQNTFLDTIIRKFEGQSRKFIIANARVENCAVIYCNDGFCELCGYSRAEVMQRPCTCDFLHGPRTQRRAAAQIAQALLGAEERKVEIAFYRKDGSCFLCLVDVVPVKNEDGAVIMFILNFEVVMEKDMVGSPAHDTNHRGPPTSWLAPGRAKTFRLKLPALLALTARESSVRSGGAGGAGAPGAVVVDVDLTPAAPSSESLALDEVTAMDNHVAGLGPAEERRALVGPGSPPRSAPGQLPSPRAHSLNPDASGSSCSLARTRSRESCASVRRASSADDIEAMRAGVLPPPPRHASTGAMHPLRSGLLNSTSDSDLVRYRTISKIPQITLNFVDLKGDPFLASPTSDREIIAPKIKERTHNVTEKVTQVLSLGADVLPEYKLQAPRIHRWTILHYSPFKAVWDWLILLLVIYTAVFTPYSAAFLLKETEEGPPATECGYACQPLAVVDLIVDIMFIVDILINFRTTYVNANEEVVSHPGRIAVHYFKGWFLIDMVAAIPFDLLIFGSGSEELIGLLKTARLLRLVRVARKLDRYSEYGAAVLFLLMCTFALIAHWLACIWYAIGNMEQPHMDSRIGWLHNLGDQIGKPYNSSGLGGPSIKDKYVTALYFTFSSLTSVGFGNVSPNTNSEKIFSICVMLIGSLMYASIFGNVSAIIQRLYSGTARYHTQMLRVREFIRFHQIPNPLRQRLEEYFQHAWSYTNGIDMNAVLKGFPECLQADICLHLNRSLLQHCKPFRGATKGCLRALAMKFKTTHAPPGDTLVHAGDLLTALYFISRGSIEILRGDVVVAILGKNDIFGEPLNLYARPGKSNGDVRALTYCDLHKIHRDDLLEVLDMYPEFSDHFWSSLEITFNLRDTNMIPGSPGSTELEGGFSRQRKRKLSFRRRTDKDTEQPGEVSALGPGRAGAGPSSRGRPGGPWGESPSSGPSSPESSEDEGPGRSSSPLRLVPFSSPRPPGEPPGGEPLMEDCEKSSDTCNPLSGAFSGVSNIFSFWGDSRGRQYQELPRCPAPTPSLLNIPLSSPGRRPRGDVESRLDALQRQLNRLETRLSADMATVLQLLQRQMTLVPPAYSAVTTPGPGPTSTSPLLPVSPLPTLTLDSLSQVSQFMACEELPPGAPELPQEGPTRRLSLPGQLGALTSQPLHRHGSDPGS
Chain of Cytochrome P450 2C9 (P11712 whole entry): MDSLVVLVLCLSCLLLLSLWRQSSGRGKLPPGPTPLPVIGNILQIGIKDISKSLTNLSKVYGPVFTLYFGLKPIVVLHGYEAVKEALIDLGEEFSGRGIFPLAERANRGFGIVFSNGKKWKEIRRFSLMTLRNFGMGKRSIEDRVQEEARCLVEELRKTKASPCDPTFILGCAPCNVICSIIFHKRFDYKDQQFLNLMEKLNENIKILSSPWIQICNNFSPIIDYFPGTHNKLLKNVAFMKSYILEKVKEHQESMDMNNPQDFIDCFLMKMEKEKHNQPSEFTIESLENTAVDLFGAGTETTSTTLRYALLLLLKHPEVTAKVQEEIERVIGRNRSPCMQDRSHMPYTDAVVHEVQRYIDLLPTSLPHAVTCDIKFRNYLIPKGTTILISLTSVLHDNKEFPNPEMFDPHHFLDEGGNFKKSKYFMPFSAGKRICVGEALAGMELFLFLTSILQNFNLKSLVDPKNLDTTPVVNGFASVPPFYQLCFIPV
Chain of Indoleamine 2,3-dioxygenase 1 (Mus musculus) (P28776 whole entry, looked up): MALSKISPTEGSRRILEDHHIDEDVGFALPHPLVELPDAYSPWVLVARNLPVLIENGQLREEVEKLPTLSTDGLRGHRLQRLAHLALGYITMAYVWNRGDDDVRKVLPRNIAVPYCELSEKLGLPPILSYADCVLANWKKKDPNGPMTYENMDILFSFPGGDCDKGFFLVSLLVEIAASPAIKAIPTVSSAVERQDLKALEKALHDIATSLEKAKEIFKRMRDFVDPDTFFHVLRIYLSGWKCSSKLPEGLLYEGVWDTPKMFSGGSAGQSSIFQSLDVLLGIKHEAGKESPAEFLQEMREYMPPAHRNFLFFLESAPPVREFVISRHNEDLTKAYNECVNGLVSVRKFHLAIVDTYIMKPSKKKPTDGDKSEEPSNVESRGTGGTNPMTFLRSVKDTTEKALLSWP

In data set [1], `CCCNC(=O)C1(c2ccc(-c3ccccn3)cc2)CCC1` had an IC50 of over 10 µM.
Turning to `CC(C)(O)c1cc(C(F)(F)F)ncc1-c1ccc(C2(C(=O)Nc3ccc(F)cc3)COC2)cc1`, the half-life in [2] is 43 h; in data set [13], 7.4 h. Further, the IC50 against Cytochrome P450 2C9 was 8.64 µM; in [3], 40 µM; in data set [1], 0.003 µM; in [10] it was 12 µM; in data set [12], 8.3 µM; in data set [14] it was 0.29 nM. Also, the K in data set [4] was 4.54 10^-3/min. Besides, the CL free in [5] worked out at 12 mL/min/kg; in data set [15] it was 11 mL/min/kg. In addition, the solubility in data set [6] came to 124 µM (≈ 58.8 µg/mL); in data set [16], 123 µM (≈ 58.4 µg/mL). In data set [7], the T1/2 was determined as 2.55 h. The Activity result in data set [8] and in data set [9] was “Dde” each time. The bioavailability in data set [11] came out at 50%; in data set [17] it was 62%; in [18], 27%; in data set [19] it was 16%. The Ki in data set [20] is 0.00011 µM.
Take `O=C(Nc1ccc(F)cc1)C1(c2ccc(-c3nc(C4CC4)no3)cc2)COC1`: the CL free in data set [5] is 971 mL/min/kg; in data set [15], 4 mL/min/kg. Further, the solubility in [6] turned out to be 40 µM (≈ 15.2 µg/mL); in data set [16], 141 µM (≈ 53.5 µg/mL). Also, the IC50 in data set [21] turned out to be 13.8 µM.
Compound `CCCNC(=O)C1(c2ccc(-c3cccnc3)cc2)CCC1` displayed an IC50 in data set [1] of 8.02 µM.
Regarding `O=C(Nc1ccc(F)cc1)C1(c2ccc(-n3cnc(C4CC4)cc3=O)cc2)COC1`, the solubility came out at 140 µM (≈ 56.8 µg/mL) in data set [6] and 143 µM (≈ 58 µg/mL) in [16]. In data set [21], this compound returned an IC50 of over 60 µM.
Turning to `CCCNC(=O)C1(c2ccc(-c3ccncc3)cc2)CCC1`, the IC50 in data set [1] was over 10 µM.
On to `O=C(Nc1ccc(C2(C(=O)Nc3ccc(F)cc3)COC2)cc1)c1cccc(Cl)c1`, for which the results for the CL free in [5] and in data set [15] were 250 mL/min/kg and 420 mL/min/kg, respectively.
On Cytochrome P450 2C9, `O=C(Nc1ccc(F)cc1)C1(c2ccc(-c3cnc(C(F)(F)F)cc3CO)cc2)CC(F)(F)C1` registered an IC50 of 0.805 µM. In addition, the CL free in [5] is under 12 mL/min/kg; in data set [15], under 6 mL/min/kg. For the same compound, the solubility worked out at 16 µM (≈ 7.69 µg/mL) in [6] and 17 µM (≈ 8.17 µg/mL) in data set [16].
Regarding `Cc1cc(C(F)(F)F)ncc1-c1ccc(C2(C(=O)Nc3ccc(F)cc3)COC2)cc1`, the CL free in data set [5] came to 590 mL/min/kg; in data set [15] it was 330 mL/min/kg. Moreover, the solubility in data set [6] and in data set [16] was under 3 µM in each case.
Regarding `Cc1cc(C2CC2)ncc1-c1ccc(C2(C(=O)Nc3ccc(F)cc3)COC2)cc1`, the CL free in data set [5] worked out at 6156 mL/min/kg; in data set [15] it was 365 mL/min/kg. For the same compound, the solubility in data set [6] is 139 µM (≈ 55.9 µg/mL); in data set [16] it was under 3 µM. In [14], the IC50 amounted to 0.08 nM.
For `CCCNC(=O)C1(c2ccc(NC(=O)c3cccc(Cl)c3)cc2)CCC1`, the Vdss in data set [22] came out at 180 L/kg. In data set [23], this compound showed an MRT of 0.7 h. Besides, the half-life in data set [24] was 0.89 h.
Consider `O=C(Nc1ccc(F)cc1)C1(c2ccc(-c3cnc(C(F)(F)F)cc3CO)cc2)CCC1`, for which the concentration for half-maximal inhibition (IC50) on Cytochrome P450 2C9 stood at 0.905 µM; in data set [21], 11.9 µM. Moreover, the CL free was 1658 mL/min/kg in data set [5] and 376 mL/min/kg in data set [15]. Also, the solubility in [6] and in data set [16] was under 2 µM in each case.
In the case of `CCCNC(=O)C1(c2ccc(-c3ccc(C)nc3)cc2)CCC1`, half-maximal inhibition in data set [1] (IC50) was put at 1.17 µM.
On to `O=C(Nc1ccc(F)cc1)C1(c2ccc(-c3ccc(C4CC4)nc3)cc2)COC1`, for which the values for the CL free in [5] and in data set [15] were 4361 mL/min/kg and 689 mL/min/kg, respectively. The solubility in [6] and in data set [16] was under 3 µM in each case. In addition, the IC50 in data set [14] was found to be 377 nM.
On to `O=C(Nc1ccc(F)cc1)C1(c2ccc(-c3cnc(C(F)(F)F)cc3CO)cc2)COC1`, for which the IC50 against Cytochrome P450 2C9 came out at 6.3 µM; in data set [1] it was 0.002 µM; in data set [14] it was 2.5 nM; in data set [21], 22.8 µM. Further, the Kd in data set [25] came to 0.000158 µM. Further, the values for the CL free in data set [5] and in data set [15] were under 10 mL/min/kg and 19 mL/min/kg, respectively. Besides, the solubility is 147 µM (≈ 65.6 µg/mL) in data set [6] and 145 µM (≈ 64.7 µg/mL) in data set [16]. Also, the Ki in data set [20] came out at 0.00015 µM.

For orientation: IC50 means the midpoint of a concentration-inhibition curve. Usually half-life stands for the time needed for the level to fall by half in the phase considered. In general, solubility refers to how much of the substance goes into solution per volume. By bioavailability is commonly meant dose-corrected exposure relative to a reference, in per cent. A higher bioavailability goes with much systemic uptake. For orientation: Ki means a measure of affinity in units of concentration, obtained from inhibition or displacement. What is called Vdss is a proportionality between amount in the body and measured concentration, not a real space. Read a high Vdss as wide distribution into tissue. In general, MRT refers to the average time that molecules of a dose stay in the body. By Kd is commonly meant a measure of binding affinity in units of concentration.

For the origin of these results see ChEMBL document CHEMBL5154775, “Oxetane Promise Delivered: Discovery of Long-Acting IDO1 Inhibitors Suitable for Q3W Oral or Parenteral Dosing” (J Med Chem, 2022).
